From ChEMBL document CHEMBL3763125, “Discovery of novel phenoxazinone derivatives as DKK1/LRP6 interaction inhibitors: Synthesis, biological evaluation and structure-activity relationships” (Bioorg Med Chem, 2016)
The source made the active and inactive calls. The rule behind the calls is not given here.

Assays:
Assay type in all cases: cell-based
SH-SY5Y = assay: Cytotoxicity against human SH-SY5Y cells at 10 to 100 uM after 24 hrs by MTT assay
[1] = molecular target: T1, Low-density lipoprotein receptor-related protein 6 (Homo sapiens, UniProt O75581); assay: Binding affinity to human LRP6 expressed in HEK293 cells assessed as inhibition of DKK1/LRP6 interaction using compound pre-treated DKK1 conditioned media after 2 hrs by fluorescence microscopic analysis
[2] = molecular target: T1, Low-density lipoprotein receptor-related protein 6; assay: Binding affinity to LRP6 in human SH-SY5Y cells assessed as DKK1/LRP6 interaction-mediated increase in beta-catenin level at 10 uM incubated for 1 hr using compound pre-treated DKK1 conditioned media by Western blot analysis
[3] = molecular target: T1, Low-density lipoprotein receptor-related protein 6; assay: Binding affinity to LRP6 in human SH-SY5Y cells assessed as inhibition of DKK1/LRP6 interaction-mediated tau phosphorylation at serine 396 at 10 uM incubated for 1 hr using compound pre-treated DKK1 conditioned media by Western blot analysis

T1 sequence (O75581 whole entry): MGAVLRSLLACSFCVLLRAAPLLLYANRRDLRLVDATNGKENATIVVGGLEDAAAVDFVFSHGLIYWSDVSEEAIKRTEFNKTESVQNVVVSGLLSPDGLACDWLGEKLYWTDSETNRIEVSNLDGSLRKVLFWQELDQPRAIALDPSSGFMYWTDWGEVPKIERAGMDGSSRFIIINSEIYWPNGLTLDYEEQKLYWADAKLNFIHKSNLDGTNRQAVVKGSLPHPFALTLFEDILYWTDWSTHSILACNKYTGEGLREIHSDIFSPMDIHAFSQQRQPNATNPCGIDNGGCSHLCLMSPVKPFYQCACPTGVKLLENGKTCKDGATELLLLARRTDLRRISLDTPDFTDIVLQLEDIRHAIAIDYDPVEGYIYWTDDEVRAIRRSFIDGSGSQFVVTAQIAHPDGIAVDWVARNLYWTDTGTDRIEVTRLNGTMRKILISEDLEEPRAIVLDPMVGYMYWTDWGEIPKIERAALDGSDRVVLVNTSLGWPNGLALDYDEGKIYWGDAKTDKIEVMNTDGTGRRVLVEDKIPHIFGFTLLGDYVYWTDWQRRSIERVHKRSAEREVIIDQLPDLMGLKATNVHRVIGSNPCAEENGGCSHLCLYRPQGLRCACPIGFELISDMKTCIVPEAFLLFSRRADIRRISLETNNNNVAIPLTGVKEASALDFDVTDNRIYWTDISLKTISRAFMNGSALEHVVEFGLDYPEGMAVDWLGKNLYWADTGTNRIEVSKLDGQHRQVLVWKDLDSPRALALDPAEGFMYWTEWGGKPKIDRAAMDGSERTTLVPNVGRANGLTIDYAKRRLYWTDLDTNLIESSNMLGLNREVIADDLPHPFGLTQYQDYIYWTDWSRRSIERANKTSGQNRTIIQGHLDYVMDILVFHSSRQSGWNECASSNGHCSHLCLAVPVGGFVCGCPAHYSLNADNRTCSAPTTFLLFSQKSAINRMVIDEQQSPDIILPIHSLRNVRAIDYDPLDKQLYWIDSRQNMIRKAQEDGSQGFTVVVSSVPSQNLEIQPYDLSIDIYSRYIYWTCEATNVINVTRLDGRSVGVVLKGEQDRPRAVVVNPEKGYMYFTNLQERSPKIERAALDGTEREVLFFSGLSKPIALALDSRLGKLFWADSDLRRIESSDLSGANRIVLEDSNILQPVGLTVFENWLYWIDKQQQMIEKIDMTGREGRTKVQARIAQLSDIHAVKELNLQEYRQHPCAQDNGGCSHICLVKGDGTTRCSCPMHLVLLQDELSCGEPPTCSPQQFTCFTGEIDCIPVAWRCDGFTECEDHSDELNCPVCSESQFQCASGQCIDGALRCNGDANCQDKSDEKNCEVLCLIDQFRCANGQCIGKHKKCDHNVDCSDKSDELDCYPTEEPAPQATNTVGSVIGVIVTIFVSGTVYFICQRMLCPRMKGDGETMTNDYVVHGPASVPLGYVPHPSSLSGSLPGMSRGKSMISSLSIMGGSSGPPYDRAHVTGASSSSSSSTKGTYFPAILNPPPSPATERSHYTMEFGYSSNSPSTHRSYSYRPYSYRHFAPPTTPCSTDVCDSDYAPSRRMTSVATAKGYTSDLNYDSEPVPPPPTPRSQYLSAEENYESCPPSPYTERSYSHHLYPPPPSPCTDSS

IC50 [1] [µM]	inhibition [2]	inhibition [3]	Compound	Activity (SH-SY5Y)
4.61	Active	–	COC(=O)c1c2nc3ccc(N(C)C)cc3oc-2c(O)c(=O)c1NC1CCCC1	Non-toxic
4.06	Active	–	COC(=O)c1c2nc3ccc(N(C)C)cc3oc-2c(O)c(=O)c1NC1CCCCC1	Non-toxic
3.74	Active	–	COC(=O)c1c2nc3ccc(N(C)C)cc3oc-2c(O)c(=O)c1N1CCOCC1	Non-toxic
5.23	Active	Active	COC(=O)c1c2nc3ccc(N(C)C)cc3oc-2c(O)c(=O)c1N	Non-toxic
5.5	Active	Active	COC(=O)c1c2nc3ccc(N(C)C)cc3oc-2c(O)c(=O)c1N1CCCCC1	Non-toxic

The next lines start with the compound.

Compound	IC50 [1] [µM]	inhibition [2]	inhibition [3]	Activity (SH-SY5Y)
COC(=O)c1c2nc3ccc(N(C)C)cc3oc-2c(O)c(=O)c1Nc1ccccc1	6.16	Active	–	Non-toxic
COC(=O)c1c2nc3ccc(N(C)C)cc3oc-2c(O)c(=O)c1Nc1ccc(OC)cc1	4.71	Active	–	Non-toxic
COC(=O)c1c2nc3ccc(N(C)C)cc3oc-2c(O)c(=O)c1NCc1ccc(OC)cc1	4.33	Active	–	Non-toxic
COC(=O)c1c2nc3ccc(N(C)C)cc3oc-2c(O)c(=O)c1Nc1ccc(C)cc1	3.77	Active	–	Non-toxic
COC(=O)c1c2nc3ccc(N(C)C)cc3oc-2c(O)c(=O)c1Nc1ccc(Cl)c(Cl)c1	4.87	Active	Active	Non-toxic
CCCCOC(=O)c1c2nc3ccc(N(C)C)cc3oc-2c(O)c(=O)c1NCc1ccc(OC)cc1	3.38	Active	–	Non-toxic
